Results published in ChEMBL document CHEMBL1134604, “2-Alkynyl-8-aryl-9-methyladenines as novel adenosine receptor antagonists: their synthesis and structure-activity relationships toward hepatic glucose production induced via agonism of the A(2B) receptor” (J Med Chem, 2001).

Experiments:
Adenosine receptor A2b [1] = molecular target: T1, Adenosine receptor A2b (Rattus norvegicus, UniProt P29276); test: Inhibitory activity on N-ethylcarboxamidoadenosine (NECA)-induced glucose production in primary cultured rat hepatocytes; assay type: functional, cell-based, Hepatocyte
T1 sequence (P29276 whole entry): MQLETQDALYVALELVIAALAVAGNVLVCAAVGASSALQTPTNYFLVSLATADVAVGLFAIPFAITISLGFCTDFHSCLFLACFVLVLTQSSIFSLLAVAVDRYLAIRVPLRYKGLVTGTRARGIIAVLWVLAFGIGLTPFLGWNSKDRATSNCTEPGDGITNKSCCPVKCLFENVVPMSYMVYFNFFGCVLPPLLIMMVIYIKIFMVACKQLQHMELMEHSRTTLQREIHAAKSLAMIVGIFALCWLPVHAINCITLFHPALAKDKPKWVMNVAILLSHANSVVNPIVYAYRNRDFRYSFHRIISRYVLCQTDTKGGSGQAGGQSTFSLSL

Adenosine receptor A2a [2] = molecular target: T2, Adenosine receptor A2a (Homo sapiens, UniProt P29274); test: Binding Affinity towards Adenosine A2A receptor expressed in HEK293 cells versus [3H]CGS-21680; assay type: cell-based
Adenosine receptor A2b [3] = molecular target: T3, Adenosine receptor A2b (Homo sapiens, UniProt P29275); test: Inhibitory activity on NECA-induced cyclic-AMP accumulation in CHO-K1 cells expressing human Adenosine A2B receptor; assay type: functional, cell-based
T3 sequence (P29275 whole entry): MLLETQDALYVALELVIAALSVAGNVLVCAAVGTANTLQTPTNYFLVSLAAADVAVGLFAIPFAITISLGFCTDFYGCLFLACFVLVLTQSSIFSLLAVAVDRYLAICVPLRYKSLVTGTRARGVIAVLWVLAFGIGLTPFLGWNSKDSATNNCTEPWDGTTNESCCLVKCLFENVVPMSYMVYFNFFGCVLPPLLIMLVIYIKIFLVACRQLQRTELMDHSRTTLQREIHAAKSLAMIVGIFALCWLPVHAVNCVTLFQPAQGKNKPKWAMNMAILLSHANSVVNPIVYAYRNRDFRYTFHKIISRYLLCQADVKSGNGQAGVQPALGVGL

Adenosine receptor A1 [4] = molecular target: T4, Adenosine receptor A1 (Homo sapiens, UniProt P30542); test: Binding Affinity towards Adenosine A1 receptor expressed in CHO-K1 cells versus [3H]CCPA; assay type: cell-based
T4 sequence (P30542 whole entry): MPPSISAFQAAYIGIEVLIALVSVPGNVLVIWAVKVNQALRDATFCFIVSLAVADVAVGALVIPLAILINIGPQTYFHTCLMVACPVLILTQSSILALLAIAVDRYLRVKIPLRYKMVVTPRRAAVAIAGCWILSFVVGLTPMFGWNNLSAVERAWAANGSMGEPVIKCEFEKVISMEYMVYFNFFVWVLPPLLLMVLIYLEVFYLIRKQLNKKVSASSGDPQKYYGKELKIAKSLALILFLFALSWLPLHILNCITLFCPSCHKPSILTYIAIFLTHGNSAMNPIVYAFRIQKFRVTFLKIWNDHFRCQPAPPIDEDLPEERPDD

Adenosine receptor A2b [5] = molecular target: T3, Adenosine receptor A2b; test: Inhibitory activity against cyclic AMP production in human Adenosine A2B receptor assay
Adenosine receptor A2a [6] = molecular target: T2, Adenosine receptor A2a; test: Binding Affinity for adenosine A2A receptor expressed in HEK293 cells compared to [3H]CGS-21680; assay type: cell-based
Adenosine receptor A3 [7] = molecular target: T5, Adenosine receptor A3 (Homo sapiens, UniProt P0DMS8); test: Binding affinity towards adenosine A3 receptor expressed in HEK293 cells versus [125I]AB-MECA; assay type: cell-based
T5 sequence (P0DMS8 whole entry): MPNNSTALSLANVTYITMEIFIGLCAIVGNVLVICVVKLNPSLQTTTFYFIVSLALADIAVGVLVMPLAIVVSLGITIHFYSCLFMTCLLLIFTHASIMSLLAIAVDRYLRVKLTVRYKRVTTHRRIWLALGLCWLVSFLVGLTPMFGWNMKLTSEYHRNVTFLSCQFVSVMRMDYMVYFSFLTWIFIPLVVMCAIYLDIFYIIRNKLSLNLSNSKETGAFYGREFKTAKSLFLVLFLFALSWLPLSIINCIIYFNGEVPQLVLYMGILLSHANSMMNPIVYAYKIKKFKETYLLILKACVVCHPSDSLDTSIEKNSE

Adenosine receptor A1 [8] = molecular target: T6, Adenosine receptor A1 (Rattus norvegicus, UniProt P25099); test: Inhibitory activity against cyclic AMP production in rat Adenosine A1 receptor assay
T6 sequence (P25099 whole entry): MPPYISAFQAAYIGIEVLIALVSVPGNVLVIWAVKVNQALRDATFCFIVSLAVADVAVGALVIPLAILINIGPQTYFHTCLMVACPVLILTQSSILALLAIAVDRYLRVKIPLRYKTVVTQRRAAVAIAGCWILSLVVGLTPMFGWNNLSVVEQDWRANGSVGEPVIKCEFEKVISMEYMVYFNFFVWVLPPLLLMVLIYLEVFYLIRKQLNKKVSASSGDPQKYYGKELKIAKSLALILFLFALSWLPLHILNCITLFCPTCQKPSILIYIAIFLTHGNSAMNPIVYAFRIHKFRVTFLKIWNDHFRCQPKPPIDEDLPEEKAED

[9] = molecular target: Adenosine receptor A2a (Rattus norvegicus) (UniProt P30543); test: Inhibitory activity against cyclic AMP production in rat Adenosine A2A receptor assay
Adenosine receptor A3 [10] = molecular target: T5, Adenosine receptor A3; test: Inhibitory activity against cyclic AMP production in human adenosine A3 receptor assay

T2 sequence (P29274 whole entry): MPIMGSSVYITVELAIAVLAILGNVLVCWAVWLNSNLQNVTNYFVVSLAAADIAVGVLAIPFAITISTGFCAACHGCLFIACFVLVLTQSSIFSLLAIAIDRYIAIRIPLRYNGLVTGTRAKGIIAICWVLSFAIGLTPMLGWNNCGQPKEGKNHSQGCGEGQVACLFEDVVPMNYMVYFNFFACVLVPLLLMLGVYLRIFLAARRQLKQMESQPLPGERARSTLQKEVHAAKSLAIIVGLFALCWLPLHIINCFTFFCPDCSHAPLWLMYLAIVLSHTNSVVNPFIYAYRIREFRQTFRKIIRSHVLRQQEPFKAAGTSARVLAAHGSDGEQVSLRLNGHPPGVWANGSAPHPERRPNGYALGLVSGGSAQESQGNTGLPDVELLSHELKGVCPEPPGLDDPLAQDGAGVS
Sequence of Adenosine receptor A2a (Rattus norvegicus) (P30543 whole entry, looked up): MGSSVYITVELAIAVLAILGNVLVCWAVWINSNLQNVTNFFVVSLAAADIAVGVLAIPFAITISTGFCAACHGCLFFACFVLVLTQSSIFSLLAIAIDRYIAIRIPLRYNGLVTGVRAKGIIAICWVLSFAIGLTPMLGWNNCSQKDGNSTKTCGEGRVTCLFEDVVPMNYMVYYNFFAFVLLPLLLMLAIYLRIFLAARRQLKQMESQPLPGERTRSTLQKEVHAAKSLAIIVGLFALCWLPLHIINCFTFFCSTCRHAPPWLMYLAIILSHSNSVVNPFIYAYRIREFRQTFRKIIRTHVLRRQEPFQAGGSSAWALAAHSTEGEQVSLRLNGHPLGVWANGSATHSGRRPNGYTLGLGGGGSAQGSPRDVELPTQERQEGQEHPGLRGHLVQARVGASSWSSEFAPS

Row | Compound | IC50 (Adenosine receptor A2b [1]) | IC50 (Adenosine receptor A2b [3]) | Ki (Adenosine receptor A1 [4]) | also measured
1 | Cc1cccc(-c2nc3c(N)nc(C#CC4(O)CCCCC4)nc3n2C)c1 | 970 nM |  |  | 
2 | Cn1c(-c2cccc(C#N)c2)nc2c(N)nc(C#CC3(O)CCCCC3)nc21 | 410 nM | 72 nM | 130 nM | Ki (Adenosine receptor A2a [2]): 13 nM
3 | COC(=O)C1=C2C=CN(C)C=C2c2nc(-c3ccccc3)nn2C1 | > 10000 nM | 3000 nM | > 10000 nM | IC50 (Adenosine receptor A2b [5]): 3000 nM; Ki (Adenosine receptor A2a [6]): > 10000 nM
4 | Cn1c(-c2ccccn2)nc2c(N)nc(C#CC3(O)CCCCC3)nc21 | 1300 nM |  |  | 
5 | COc1ccc(-c2nc3c(N)nc(C#CC4(O)CCCCC4)nc3n2C)cc1F | > 10000 nM |  |  | 
6 | Cn1cnc2c(N)nc(C#CC3(O)CCCCC3)nc21 | 4400 nM |  |  | 
7 | CCCn1c(=O)c2c(nc(/C=C/c3ccc(OC)c(OC)c3)n2C)n(CCC)c1=O |  | 1500 nM | > 10000 nM | Ki (Adenosine receptor A3 [7]): 2500 nM; IC50 (Adenosine receptor A1 [8]): 62 nM
8 | Cn1c(-c2ccccc2)nc2c(N)nc(C#CC3(O)CCCCC3)nc21 | 760 nM |  |  | 
9 | Cn1c(-c2cccc(F)c2)nc2c(N)ncnc21 | 5300 nM |  |  | 
10 | O=C(/C=C/c1c(-c2ccccc2)nn2ccccc12)N1CCCC[C@@H]1CCO [FK453] | 8100 nM |  | 18 nM | Ki (Adenosine receptor A3 [7]): 2800 nM; IC50 (Adenosine receptor A1 [8]): 17.2 nM
11 | Cn1c(-c2cccc(F)c2)nc2c(N)nc(C#CC3(O)CCCCCC3)nc21 | 440 nM | 49 nM | 27 nM | Ki (Adenosine receptor A2a [2]): 19 nM
12 | Cn1c(-c2ccc(F)cc2)nc2c(N)nc(C#CC3(O)CCCCC3)nc21 | 1200 nM | 160 nM |  | 
13 | COc1cccc(-c2nc3c(N)nc(C#CC4(O)CCCCC4)nc3n2C)c1 | 1600 nM |  |  | 
14 | Cn1c(-c2cccc(F)c2)nc2c(N)nc(C#CC3(O)CCCCC3)nc21 | 250 nM | 23 nM | 14 nM | Ki (Adenosine receptor A2a [2]): 16 nM; Ki (Adenosine receptor A3 [7]): 540 nM
15 | Cn1c(-c2cccc(F)c2)nc2c(N)nc(C#CC(C)(C)O)nc21 | 510 nM | 150 nM | 30 nM | Ki (Adenosine receptor A2a [2]): 9.1 nM; Ki (Adenosine receptor A3 [7]): 2100 nM
16 | Cn1c(=O)c2[nH]c(-c3ccccc3)nc2n(C)c1=O [8-PHENYL THEOPHYLLINE] | 1100 nM | 210 nM |  | IC50 (Adenosine receptor A2b [5]): 210 nM; IC50 [9]: 454 nM; IC50 (Adenosine receptor A3 [10]): 1250 nM
17 | Cn1c(-c2ccc(Cl)cc2)nc2c(N)nc(C#CC3(O)CCCCC3)nc21 | 6300 nM | 500 nM |  | 
18 | Cn1c(-c2ccco2)nc2c(N)nc(C#CC3(O)CCCCC3)nc21 | 220 nM | 14 nM | 25 nM | Ki (Adenosine receptor A2a [2]): 11 nM
19 | Cn1c(-c2cccs2)nc2c(N)nc(C#CC3(O)CCCCC3)nc21 | 750 nM |  |  | 
20 | Cn1c(-c2ccccc2F)nc2c(N)nc(C#CC3(O)CCCCC3)nc21 | 440 nM | 77 nM | 19 nM | Ki (Adenosine receptor A2a [2]): 15 nM
21 | Cn1c(-c2cccc(C(F)(F)F)c2)nc2c(N)nc(C#CC3(O)CCCCC3)nc21 | > 10000 nM | 5600 nM |  | 
22 | CCC(O)(C#Cc1nc(N)c2nc(-c3cccc(F)c3)n(C)c2n1)CC | 540 nM | 140 nM | 29 nM | Ki (Adenosine receptor A2a [2]): 13 nM; Ki (Adenosine receptor A3 [7]): 330 nM
23 | Cn1c(-c2cccc(F)c2)nc2c(N)nc(C#CC3CCCC3)nc21 | 720 nM |  |  | 
24 | Cn1c(-c2cccc(Cl)c2)nc2c(N)nc(C#CC3(O)CCCCC3)nc21 | 490 nM |  |  | 
25 | Cn1c(-c2cccc(F)c2)nc2c(N)nc(C#CC3(O)CCCC3)nc21 | 420 nM | 63 nM | 20 nM | Ki (Adenosine receptor A3 [7]): 1100 nM
